Blank lines part the entries; values can stand above or below the molecule they belong to.
What was measured:
Type in all cases: functional
[1] = species on record: Homo sapiens; experiment: The compound was tested in vitro for its anti-platelet activity against human platelets in presence of ADP
[2] = tested on: Rattus norvegicus; experiment: Tested ex vivo for its inhibitory activity at 2 h against rats after oral administration of 3.2 mg/Kg dose to evaluate bioavailability
[3] = tested on: Canis familiaris; experiment: Tested ex vivo for its inhibitory activity at 1 hr against dogs after oral administration of 1 mg/Kg dose to evaluate bioavailability; settings: Canis lupus familiaris
[4] = tested on: Canis familiaris; experiment: Tested ex vivo for its inhibitory activity at 1 hr against dogs after oral administration of 3.2 mg/Kg dose to evaluate bioavailability; settings: Canis lupus familiaris
[5] = tested on: Canis familiaris; experiment: Tested ex vivo for its inhibitory activity at 6 hr against dogs after oral administration of 10 mg/Kg dose to evaluate bioavailability; settings: Canis lupus familiaris
[6] = tested on: Canis familiaris; experiment: Tested ex vivo for its inhibitory activity at 8 hr against dogs after oral administration of 3.2 mg/Kg dose to evaluate bioavailability; settings: Canis lupus familiaris
[7] = tested on: Canis familiaris; experiment: Tested ex vivo for its inhibitory activity at 3 hr against dogs after oral administration of 1 mg/Kg dose to evaluate bioavailability; settings: Canis lupus familiaris
[8] = tested on: Cavia porcellus; experiment: Tested ex vivo for its inhibitory activity at 2 hr against guinea pig after oral administration of 0.32 mg/Kg dose to evaluate bioavailability
[9] = tested on: Cavia porcellus; experiment: Tested ex vivo for its inhibitory activity at 2 hr against guinea pig after oral administration of 1 mg/Kg dose to evaluate bioavailability
[10] = tested on: Canis familiaris; experiment: Tested ex vivo for its inhibitory activity at 8 hr against dogs after oral administration of 10 mg/Kg dose to evaluate bioavailability; settings: Canis lupus familiaris
[11] = tested on: Canis familiaris; experiment: Tested ex vivo for its inhibitory activity at 6 hr against dogs after oral administration of 3.2 mg/Kg dose to evaluate bioavailability; settings: Canis lupus familiaris
[12] = tested on: Rattus norvegicus; experiment: Tested ex vivo for its inhibitory activity at 1 h against rats after oral administration of 3.2 mg/Kg dose to evaluate bioavailability
[13] = tested on: Rattus norvegicus; experiment: Tested ex vivo for its inhibitory activity at 0.5 hr against rats after oral administration of 3.2 mg/Kg dose to evaluate bioavailability
[14] = species on record: Canis familiaris; experiment: The compound was tested in vitro for its anti-platelet activity against dog platelets in presence of ADP; settings: Canis lupus familiaris
[15] = tested on: Cavia porcellus; experiment: Tested ex vivo for its inhibitory activity at 1 hr against guinea pig after oral administration of 0.32 mg/Kg dose to evaluate bioavailability
[16] = tested on: Cavia porcellus; experiment: Tested ex vivo for its inhibitory activity at 1 hr against guinea pig after oral administration of 1 mg/Kg dose to evaluate bioavailability
[17] = tested on: Cavia porcellus; experiment: Tested ex vivo for its inhibitory activity at 1 hr against guinea pig after oral administration of 0.1 mg/Kg dose to evaluate bioavailability
[18] = tested on: Canis familiaris; experiment: Tested ex vivo for its inhibitory activity at 3 hr against dogs after oral administration of 3.2 mg/Kg dose to evaluate bioavailability; settings: Canis lupus familiaris
[19] = The ratio of anti-platelet activity against dog platelets to that of human platelets was determined
[20] = tested on: Canis familiaris; experiment: Tested ex vivo for its inhibitory activity at 3 hr against dogs after oral administration of 10 mg/Kg dose to evaluate bioavailability; settings: Canis lupus familiaris
[21] = tested on: Cavia porcellus; experiment: Tested ex vivo for its inhibitory activity at 3 hr against guinea pig after oral administration of 1 mg/Kg dose to evaluate bioavailability
[22] = species on record: Rattus norvegicus; experiment: The compound was tested for its stability in intestinal juice of rats after 5 h
[23] = species on record: Rattus norvegicus; experiment: The compound was tested for its stability in intestinal juice of rats after 2 h
[24] = species on record: Rattus norvegicus; experiment: The compound was tested for its stability in intestinal juice of rats after 0 h
[25] = tested on: Canis familiaris; experiment: Tested ex vivo for its inhibitory activity at 1 hr against dogs after oral administration of 10 mg/Kg dose to evaluate bioavailability; settings: Canis lupus familiaris
[26] = tested on: Cavia porcellus; experiment: Tested ex vivo for its inhibitory activity at 3 hr against guinea pig after oral administration of 3.2 mg/Kg dose to evaluate bioavailability
[27] = tested on: Canis familiaris; experiment: Tested ex vivo for its inhibitory activity at 2 h against dogs after oral administration of 32 mg/Kg dose to evaluate bioavailability; settings: Canis lupus familiaris
[28] = tested on: Canis familiaris; experiment: Tested ex vivo for its inhibitory activity at 3 hr against dogs after oral administration of 32 mg/Kg dose to evaluate bioavailability; settings: Canis lupus familiaris
[29] = tested on: Cavia porcellus; experiment: Tested ex vivo for its inhibitory activity at 1 hr against guinea pig after oral administration of 3.2 mg/Kg dose to evaluate bioavailability
[30] = tested on: Cavia porcellus; experiment: Tested ex vivo for its inhibitory activity at 6 hr against guinea pig after oral administration of 3.2 mg/Kg dose to evaluate bioavailability
[31] = tested on: Rattus norvegicus; experiment: Tested ex vivo for its inhibitory activity at 2 hr against rats after oral administration of 20 mg/Kg dose to evaluate bioavailability
[32] = tested on: Rattus norvegicus; experiment: Tested ex vivo for its inhibitory activity at 0.5 hr against rats after oral administration of 10 mg/Kg dose to evaluate bioavailability
[33] = tested on: Rattus norvegicus; experiment: Tested ex vivo for its inhibitory activity at 1 hr against rats after oral administration of 20 mg/Kg dose to evaluate bioavailability
[34] = species on record: Rattus norvegicus; experiment: Tested for its stability in intestinal juice of rats after 2 h
[35] = species on record: Rattus norvegicus; experiment: Tested for its stability in intestinal juice of rats after 5 h
[36] = species on record: Rattus norvegicus; experiment: The compound was tested for its stability in intestinal juice of rats after 7 h
[37] = tested on: Canis familiaris; experiment: Tested ex vivo for its inhibitory activity at 1 hr against dogs after oral administration of 32 mg/Kg dose to evaluate bioavailability; settings: Canis lupus familiaris
[38] = tested on: Rattus norvegicus; experiment: Tested ex vivo for its inhibitory activity at 2 hr against rats after oral administration of 10 mg/Kg dose to evaluate bioavailability
[39] = tested on: Rattus norvegicus; experiment: Tested ex vivo for its inhibitory activity at 0.5 hr against rats after oral administration of 20 mg/Kg dose to evaluate bioavailability
[40] = tested on: Rattus norvegicus; experiment: Tested ex vivo for its inhibitory activity at 1 hr against rats after oral administration of 10 mg/Kg dose to evaluate bioavailability
[41] = species on record: Rattus norvegicus; experiment: Tested for its stability in intestinal juice of rats after 0 h
[42] = tested on: Canis familiaris; experiment: Tested ex vivo for its inhibitory activity at 2 hr against dogs after oral administration of 3.2 mg/Kg dose to evaluate bioavailability; settings: Canis lupus familiaris

Structure (SMILES): CCOc1ccc(CCNC(=O)[C@H](CC(=O)O)NC(=O)CCCOc2ccc(C(=N)N)cc2)cc1
- IC50 [1]: 340 nM

Structure (SMILES): CC(C)[C@H](NC(=O)[C@H](CC(=O)O)NC(=O)CCCOc1ccc(C(=N)N)cc1)C(=O)N1CCS(=O)(=O)CC1
- inhibition in vivo at 3.2 mg/kg [2]: 44%
- inhibition in vivo at 1 mg/kg [3]: 40%
- inhibition in vivo at 3.2 mg/kg [4]: 85%
- inhibition in vivo at 10 mg/kg [5]: 65%
- inhibition in vivo at 3.2 mg/kg [6]: 0%
- inhibition in vivo at 1 mg/kg [7]: 11%
- inhibition in vivo at 0.32 mg/kg [8]: 50%
- inhibition in vivo at 1 mg/kg [9]: 59%
- inhibition in vivo at 10 mg/kg [10]: 45%
- inhibition in vivo at 3.2 mg/kg [11]: 46%
- inhibition in vivo at 3.2 mg/kg [12]: 97%
- inhibition in vivo at 3.2 mg/kg [13]: 76%
- IC50 [14]: 110 nM
- IC50 [1]: 30 nM
- inhibition in vivo at 0.32 mg/kg [15]: 69%
- inhibition in vivo at 1 mg/kg [16]: 100%
- inhibition in vivo at 0.1 mg/kg [17]: 49%
- inhibition in vivo at 3.2 mg/kg [18]: 65%
- Ratio [19]: 3.7
- inhibition in vivo at 10 mg/kg [20]: 80%
- inhibition in vivo at 1 mg/kg [21]: 21%

Structure (SMILES): CC(C)[C@H](NC(=O)[C@H](CC(=O)O)NC(=O)CCCOc1ccc(C(=N)N)cc1)C(=O)N1CCOCC1
- inhibition in vivo at 3.2 mg/kg [2]: 95%
- inhibition in vivo at 3.2 mg/kg [4]: 53%
- inhibition in vivo at 10 mg/kg [5]: 59%
- inhibition in vivo at 10 mg/kg [25]: 96%
- inhibition in vivo at 3.2 mg/kg [11]: 20%
- inhibition in vivo at 3.2 mg/kg [12]: 97%
- inhibition in vivo at 3.2 mg/kg [13]: 95%
- IC50 [14]: 140 nM
- IC50 [1]: 79 nM
- inhibition in vivo at 3.2 mg/kg [18]: 45%
- Ratio [19]: 1.8
- inhibition in vivo at 10 mg/kg [20]: 75%

Structure (SMILES): CC(C)[C@H](NC(=O)[C@H](CC(=O)O)NC(=O)CCCOc1ccc(C(=N)N)cc1)C(N)=O
- Remains [22]: 107.3%
- Remains [23]: 105.6%
- IC50 [1]: 670 nM
- Remains [24]: 100%

Structure (SMILES): CC(C)[C@H](NC(=O)[C@H](CC(=O)O)NC(=O)CCCOc1ccc(C(=N)N)cc1)C(=O)O
- Remains [22]: 25.6%
- inhibition in vivo at 3.2 mg/kg [26]: 64%
- inhibition in vivo at 32 mg/kg [27]: 29%
- inhibition in vivo at 32 mg/kg [28]: 18%
- inhibition in vivo at 3.2 mg/kg [4]: 19%
- inhibition in vivo at 3.2 mg/kg [29]: 100%
- inhibition in vivo at 3.2 mg/kg [30]: 19%
- inhibition in vivo at 20 mg/kg [31]: 20%
- inhibition in vivo at 10 mg/kg [32]: 24%
- inhibition in vivo at 20 mg/kg [33]: 33%
- Remains [34]: 63.8%
- Remains [35]: 45.1%
- Remains [36]: 19.2%
- IC50 [14]: 380 nM
- inhibition in vivo at 32 mg/kg [37]: 58%
- Remains [23]: 61.3%
- IC50 [1]: 100 nM
- inhibition in vivo at 10 mg/kg [38]: 4%
- Remains [24]: 100%
- inhibition in vivo at 0.32 mg/kg [15]: 70%
- inhibition in vivo at 1 mg/kg [16]: 99%
- inhibition in vivo at 20 mg/kg [39]: 45%
- inhibition in vivo at 3.2 mg/kg [18]: 10%
- inhibition in vivo at 10 mg/kg [40]: 18%
- Remains [41]: 100%
- inhibition in vivo at 3.2 mg/kg [42]: 30%
- inhibition in vivo at 1 mg/kg [21]: 34%

Structure (SMILES): CC(C)CNC(=O)[C@H](CC(=O)O)NC(=O)CCCOc1ccc(C(=N)N)cc1
- Remains [22]: 83.6%
- Remains [36]: 86.2%
- Remains [23]: 80.4%
- IC50 [1]: 1200 nM
- Remains [24]: 100%

Continued, in another order:

- IC50 [1]: 370 nM
Structure (SMILES): CC(C)Oc1ccc(CCNC(=O)[C@H](CC(=O)O)NC(=O)CCCOc2ccc(C(=N)N)cc2)cc1

- IC50 [1]: 440 nM
Structure (SMILES): COc1ccc(CCNC(=O)[C@H](CC(=O)O)NC(=O)CCCOc2ccc(C(=N)N)cc2)cc1
- Remains [22]: 105.7%
- Remains [23]: 100.5%
- Remains [24]: 100%

- IC50 [1]: 210 nM
Structure (SMILES): CC(C)[C@H](NC(=O)[C@H](CC(=O)O)NC(=O)CCCOc1ccc(C(=N)N)cc1)C(=O)NC1CCCCC1

- IC50 [1]: 1400 nM
Structure (SMILES): CC(C)C(C)NC(=O)[C@H](CC(=O)O)NC(=O)CCCOc1ccc(C(=N)N)cc1 (stereo not given in full)

- IC50 [1]: 250 nM
Structure (SMILES): CCN(CC)C(=O)[C@@H](NC(=O)[C@H](CC(=O)O)NC(=O)CCCOc1ccc(C(=N)N)cc1)C(C)C

- IC50 [1]: 540 nM
Structure (SMILES): COc1ccc(CCNC(=O)[C@H](CC(=O)O)NC(=O)CCCOc2ccc(C(=N)N)cc2)cc1OC

- IC50 [1]: 180 nM
Structure (SMILES): CC(C)[C@H](NC(=O)[C@H](CC(=O)O)NC(=O)CCCOc1ccc(C(=N)N)cc1)C(=O)N1CCN(C)CC1

Source: ChEMBL document CHEMBL1153685, “Design, synthesis, and evaluation of orally active fibrinogen inhibitors” (Bioorg Med Chem Lett, 1997)
